The record followed here is US8692014B2, “Acid addition salts of 5-aminolevulinic acid or its derivatives” (Photocure ASA, priority 2004, dated 2014).

Data set [1] can be described thus: Hygroscopicity: water uptake and onset of deliquescence in closed chamber at 75-84% relative humidity. It counts as physicochemical. To be noted: 75-84% relative humidity over saturated ammonium sulfate solution, ca. 25° C.; for appearance / deliquescence during the test period / water uptake as monitored by weight: in words. How it is done:
Samples of methyl 5-amino-4-oxopentanoate hydrochloride, methanesulfonate, and toluenesulfonate were weighed and kept in 30 ml plastic cups in a closed chamber at 75-84% relative humidity over saturated ammonium sulfate solution at ambient temperature (ca. 25° C.). The samples were then weighed after different intervals of time to monitor water uptake. The appearance of the samples was also checked at the same time to determine the onset of deliquescence.
Samples of 5-amino-4-oxopentanoic acid hydrochloride and toluenesulfonate were weighed and kept in 30 ml plastic cups in a closed chamber at 75-84 relative humidity over saturated ammonium sulfate solution at ambient temperature (ca. 25° C.). The samples were then weighed after different intervals of time to monitor water uptake. The appearance of the samples was also checked at the same time to determine the onset of deliquescence.
Samples of hexyl 5-amino-4-oxopentanoate hydrochloride and toluenesulfonate were weighed and kept in 30 ml plastic cups in a closed chamber at 75-84% relative humidity over saturated ammonium sulfate solution at ambient temperature (ca. 25° C.). The samples were then weighed after different intervals of time to monitor water uptake. The appearance of the samples was also checked at the same time to determine the onset of deliquescence.

A short description of data set [2]: Hygroscopicity: 2 mg samples kept at ambient temperature at ambient or 100 humidity. Format: physicochemical. The settings on record: for deliquescence on storage: ambient temperature and 100 humidity; for change of sample on storage: ambient temperature and ambient humidity for 4 days. How it is done:
Samples (2 mg) of the hydrochloride, methanesulfonate, and toluenesulfonate of hexyl 5-amino-4-oxopentanoate were kept at ambient temperature and ambient humidity for 4 days.
Samples (2 mg) of the hydrochloride, methanesulfonate, and toluenesulfonate of hexyl 5-amino-4-oxopentanoate were kept at ambient temperature and 100 humidity.

Data set [3] deals with mouse skin. Description: Skin fluorescence after topical application of cream formulations to nude mice (emission 550-750 nm). It counts as in vivo, Female Balb/c athymic nude mice. To be noted: in words; for skin fluorescence compared to the hydrochloride salt / initial fluorescence build-up compared with the hydrochloride salt / occurrence of maximum fluorescence compared with the hydrochloride salt: topical cream 0.5 mmol/10 g; for skin fluorescence compared to the hydrochloride salt: FIG. 3 and FIG. 4; for initial fluorescence build-up compared with the hydrochloride salt / occurrence of maximum fluorescence compared with the hydrochloride salt: FIG. 2. The procedure:
Different salts of 5-amino-4-oxopentanoic acid or of its esters were formulated in Unguentum Merck for dermal studies. All cream formulations contained 0.5 mmol of substance per 10 g cream to ensure the same molar concentration (assuming that 10 g cream equals 10 ml, the approx. molar concentration is 0.5 mmol/10 ml or 50 mM). Preparation of the formulations is outlined in Table 1 below.
(§1) Method: Female Balb/c athymic nude mice, weighing about 22 g, obtained from the Department of Laboratory Animals, The Norwegian Radium Hospital, Oslo, Norway, were used in the study. Each group consisted of three mice.
(§2) Each mouse received 0.05-0.1 g of formulation (see Example 31) topically applied at the right flank of the body, evenly distributed and covered with a dressing (Opsite Flexigrid; Smith and Nephew Medical Ltd., Hull, England).
(§3) The fiber point measuring device used consisted of a bundle of optical fibers connected to a spectrofluorimeter which produced the excitation light of 407 nm. The excitation light, which is capable of penetrating 0.1-0.5 mm into the tissue, was led through half of the fibers to the mouse skin. The resulting emission fluorescence spectrum (550-750) nm was collected and led through the remaining fibers into a photomultiplier for quantification. The fluorescence spectrum from the skin was measured at 0, 2, 4, 6, 8, 10, 12 and 24 hours after administration and plotted against time.

The test system of data set [4] is mouse skin. Description: Skin fluorescence after topical application of cream formulations to nude mice, measured at 636 nm. To be noted: topical cream 0.5 mmol/10 g, fluorescence at 636 nm, in words; for induction of skin fluorescence compared with the hydrochloride salt: FIG. 6 and FIG. 7; for occurrence of maximum fluorescence compared with the hydrochloride salt: FIG. 7. It counts as in vivo, Female Balb/c athymic nude mice.
Description: as §1, §2, §3
Different salts of 5-amino-4-oxopentanoic acid or of its benzylester were formulated in Unguentum Merck for dermal studies. All cream formulations contained 0.5 mmol substance per 10 g cream to assure the same molar concentration. Corrections were made in the case of the 2:1 salts so that the molar concentration of 5-amino-4-oxopentanoic acid or the corresponding ester corresponded to 0.5 mmol/10 g cream. Assuming that 10 g cream equals 10 ml, the approx. molar concentration is 0.5 mmol/10 ml=50 mM. Preparation of the formulations is outlined in Table 2 below.
Preparation of the Formulations is Described in Example 36. The same experimental system as in Example 32 was used, except that the skin fluorescence was measured at 636 nm rather than at 550-750 nm.
Preparation of the Formulations is Described in Example 36. The same experimental system as in Example 37 was used.

As to “hexyl 5-amino-4-oxopentanoate toluenesulfonate”, in data set [1], the “appearance / deliquescence during the test period” value is reported as “did not change appearance during the test period” and the “water uptake as monitored by weight” value is listed as “did not pick up water”. In addition, in data set [2], the deliquescence on storage entry was “deliquesced after four days” and the “change of sample on storage” value is listed as “No observable change”. Further, the “skin fluorescence compared to the hydrochloride salt” value in data set [3] (emission 550-750 nm) is reported as “approx. the same skin fluorescence as the hydrochloride salt”.

As to `CS(=O)(=O)O.NCC(=O)CCC(=O)O` [5-amino-4-oxopentanoic acid methanesulfonate], the “maximal skin fluorescence compared with the HCl salt” value in data set [3] (topical cream 0.5 mmol/10 g (Unguentum Merck), excitation 407 nm, emission 550-750 nm, 0-24 h, FIG. 1) is “somewhat higher maximal skin fluorescence than the HCl salt”.

As for `CCCCCCOC(=O)CCC(=O)CN.Cl` [hexyl 5-amino-4-oxopentanoate hydrochloride, reference compound], in data set [1], the onset of deliquescence amounted to 5.0 h and the “water uptake as monitored by weight” value is listed as “did not pick up water to a considerable extent”. Further, in data set [2], the deliquescence on storage entry is given as “deliquesced after standing overnight” and the “change of sample on storage” value was “No observable change”.

With `NCC(=O)CCC(=O)OCc1ccccc1.O=P(O)(O)O` [benzyl 5-amino-4-oxopentanoate phosphate, Benzyl 5-amino-4-oxopentanoate phosphate], in data set [4], the “induction of skin fluorescence compared with the hydrochloride salt” value is listed as “poorer inducers of skin fluorescence than the corresponding hydrochloride salt” and the “occurrence of maximum fluorescence compared with the hydrochloride salt” value is listed as “occurred earlier”.

For `NCC(=O)CCC(=O)OCc1ccccc1.O=[N+]([O-])O` [benzyl 5-amino-4-oxopentanoate nitrate, Benzyl 5-amino-4-oxopentanoate nitrate], the “induction of skin fluorescence compared with the hydrochloride salt” value in data set [4] is listed as “more effective in inducing skin fluorescence than the hydrochloride salt”.

`CCCCCCOC(=O)CCC(=O)CN.CS(=O)(=O)O` [hexyl 5-amino-4-oxopentanoate methanesulfonate]: in data set [1], the “appearance / deliquescence during the test period” value is listed as “deliquescence did not occur” and the “water uptake as monitored by weight” value is “took up water to some extent”. In data set [2], the deliquescence on storage result is “deliquesced after two days” and the “change of sample on storage” value was “No observable change”. In addition, the “skin fluorescence compared to the hydrochloride salt” value in data set [3] (emission 550-750 nm) is “approx. the same skin fluorescence as the hydrochloride salt”.

Turning to `CS(=O)(=O)O.NCC(=O)CCC(=O)OCc1ccccc1` [Benzyl 5-amino-4-oxopentanoate methanesulfonate], in data set [3], the “initial fluorescence build-up compared with the hydrochloride salt” value was “occurred faster” and the “occurrence of maximum fluorescence compared with the hydrochloride salt” value is listed as “occurred faster”.

For the molecule “Methyl 5-amino-4-oxopentanoate toluenesulfonate”, in data set [1], the “appearance / deliquescence during the test period” value was “did not change appearance during the test period” and the “water uptake as monitored by weight” value was “did not pick up water”.

On to `Cl.NCC(=O)CCC(=O)O` [5-amino-4-oxopentanoic acid hydrochloride, reference compound], for which, in data set [1], the onset of deliquescence came to 22.5 h and the “water uptake as monitored by weight” value is on record as “took up water to a considerable extent”.

On to `COC(=O)CCC(=O)CN.Cl` [methyl 5-amino-4-oxopentanoate hydrochloride, reference compound], for which, in data set [1], the onset of deliquescence was 22 h and the “water uptake as monitored by weight” value was “took up water to a considerable extent”.

As to “Benzyl 5-amino-4-oxopentanoate sulfate (2:1)”, in data set [4], the “induction of skin fluorescence compared with the hydrochloride salt” value was “poorer inducers of skin fluorescence than the corresponding hydrochloride salt” and the “occurrence of maximum fluorescence compared with the hydrochloride salt” value is reported as “occurred earlier”.

As for “Benzyl 5-amino-4-oxopentanoate toluenesulfonate”, in data set [3], the “initial fluorescence build-up compared with the hydrochloride salt” value is on record as “occurred faster” and the “occurrence of maximum fluorescence compared with the hydrochloride salt” value was “occurred faster”.

Turning to `COC(=O)CCC(=O)CN.CS(=O)(=O)O` [Methyl 5-amino-4-oxopentanoate methanesulfonate], in data set [1], the onset of deliquescence stood at 22 h and the “water uptake as monitored by weight” value is reported as “took up water to a considerable extent”. Further, the “skin fluorescence compared to the hydrochloride salt” value in data set [3] (emission 550-750 nm) is on record as “a considerable increase in skin fluorescence as compared to the hydrochloride salt”.

Regarding “5-Amino-4-oxopentanoic acid toluenesulfonate”, in data set [1], the “appearance / deliquescence during the test period” value is “did not change appearance during the test period” and the “water uptake as monitored by weight” value is “did not pick up water”.
